The results in this text go back to patent US8980911B2, “Heterocyclic compounds as protein kinase inhibitors” (Daiichi Sankyo Company, Limited, priority 2011, dated 2015).

What all share (type): biochemical
Experiment [1] concerns the target T1, JAK2 (Homo sapiens, UniProt O60674).
T1 construct: All enzymes only contain the catalytic domain; His (N); purchased Carna Bioscience, Inc; host or cells: baculovirus expression system
Description: In vitro enzyme assay (cell-free HTRF kinase assay), JAK2. The note with it: catalytic domain, His-tag; ATP 10 μM, SRCtide 25 nM, reaction 30 min. On the procedure: (§1) Kinase buffer [50 mM HEPES (pH 7.5), 1 mM EGTA, 10 mM MgCl2, 2 mM DTT and 0.01% Tween-20) was prepared and dilutions of a compound of formula (I) and other reagents were subsequently made in it. Two times concentrated compound of formula (I) solution: A compound of formula (I) was diluted to 100-fold final concentration in DMSO, followed by 50-fold dilution with Kinase buffer (1% DMSO final concentration). Four times concentrated Substrate/ATP mix solution: Biotin-SRCtide and ATP were diluted to 4-fold final concentration in Kinase buffer. Biotin-SRCtide solution (purchased from Anaspec) was mixed with ATP solution (1:1). Four times concentrated Enzyme solution: JAK1 or JAK2 or JAK3 or TYK2 enzyme [Human baculo virus expressed JAK1, JAK2, JAK3 and TYK2 were purchased from Carna Bioscience, Inc. All enzymes only contain the catalytic domain. JAK1 (aa 850-1154) and TYK2 (aa 871-1187) are expressed with an N-terminally fused GST-tag, and JAK2 and JAK3 with an N-terminally fused His-tag] was diluted to 4-fold final concentration in Kinase buffer and always kept on ice. Detection buffer: LANCE detection buffer (10 times concentrated) was diluted 10-fold in H2O. Four times concentrated stop solution: EDTA was diluted to a concentration of 40 mM in detection buffer. Four times concentrated ULight/Eu-antibody (from Perkin Elmer) mix solution: ULight-Streptavidin was diluted to a concentration of 100 nM (25 ng/mL final concentrations) and Eu-anti-phospho-Tyrosine (PT66) (from Perkin Elmer) was diluted to a concentration of 8 nM (2 ng/mL final concentration) in detection buffer.
(§2) Cell-free in vitro kinase assay was performed in 384 well plates. Two times concentrated compound solution (5 μL) was pipetted into a HTS 384SV Small Volume Plate. Four times concentrated Substrate/ATP mix (2.5 μL) solution was added along with 4 times concentrated Enzyme solution (2.5 μL). Plate was covered with TopSeal-A and incubated at room temperature for indicated time (Table 3). Four times concentrated Stop solution (5 μL, 10 mM final concentration) was added and incubated for 5 minutes at room temperature. Four times concentrated ULight/Eu-antibody mix solution (5 μL) was added and again plate was covered with TopSeal and incubated overnight at 4° C. TopSeal was removed and HTRF signal was measured at 615 nm and […] (excitation at 320 or 340 nm) on Tecan M1000 Multi mode plate reader. Ratio (665 nm/615 nm)×10^4 was calculated and IC50 values were deduced from Graph-pad prism 4.2.

The target in experiment [2] is T2, JAK3 (Homo sapiens, UniProt P52333).
T2 construct: All enzymes only contain the catalytic domain; His (N); purchased Carna Bioscience, Inc; host or cells: baculovirus expression system
Description: In vitro enzyme assay (cell-free HTRF kinase assay), JAK3. The settings on record: catalytic domain, His-tag; ATP 3 μM, SRCtide 100 nM, reaction 30 min. As for the experimental part:
as §1, §2

Experiment [3] concerns the target T3, JAK1 (Homo sapiens, UniProt P23458).
T3 construct: JAK1 (aa 850-1154) and TYK2 (aa 871-1187) are expressed with an N-terminally fused GST-tag; GST (N); purchased Carna Bioscience, Inc; host or cells: baculovirus expression system
Nature of the experiment: In vitro enzyme assay (cell-free HTRF kinase assay), JAK1. The note with it: catalytic domain aa 850-1154, GST-tag; ATP 60 μM, SRCtide 400 nM, reaction 120 min. On the procedure: as §1, §2

T3 sequence (P23458 850-1154): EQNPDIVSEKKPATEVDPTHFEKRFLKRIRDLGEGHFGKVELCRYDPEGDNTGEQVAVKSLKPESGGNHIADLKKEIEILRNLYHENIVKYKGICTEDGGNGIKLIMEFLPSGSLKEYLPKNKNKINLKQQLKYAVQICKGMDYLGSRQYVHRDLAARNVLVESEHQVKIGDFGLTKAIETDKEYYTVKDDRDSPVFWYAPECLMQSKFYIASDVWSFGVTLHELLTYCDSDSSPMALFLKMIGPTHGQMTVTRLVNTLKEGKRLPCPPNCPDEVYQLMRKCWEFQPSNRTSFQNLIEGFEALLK
T1 sequence (O60674 849-1124 limits assumed): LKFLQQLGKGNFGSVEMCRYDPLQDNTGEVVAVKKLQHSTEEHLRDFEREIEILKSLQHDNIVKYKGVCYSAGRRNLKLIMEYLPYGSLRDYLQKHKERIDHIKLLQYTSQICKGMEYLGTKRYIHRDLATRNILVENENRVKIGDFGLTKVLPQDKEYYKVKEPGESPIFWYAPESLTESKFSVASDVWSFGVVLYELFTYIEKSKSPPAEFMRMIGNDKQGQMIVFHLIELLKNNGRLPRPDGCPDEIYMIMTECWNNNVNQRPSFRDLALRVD
T2 sequence (P52333 822-1111 limits assumed): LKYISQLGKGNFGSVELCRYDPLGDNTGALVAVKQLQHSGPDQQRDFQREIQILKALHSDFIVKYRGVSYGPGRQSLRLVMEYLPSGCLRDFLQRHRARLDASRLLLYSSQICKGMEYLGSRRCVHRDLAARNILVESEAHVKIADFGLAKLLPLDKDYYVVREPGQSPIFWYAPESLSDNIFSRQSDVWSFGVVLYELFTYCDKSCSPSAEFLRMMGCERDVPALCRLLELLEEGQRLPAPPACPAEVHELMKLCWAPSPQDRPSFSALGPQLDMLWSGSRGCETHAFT

As for `O=C(NCC1CC1)c1cc(Cl)c(C(=O)n2ccc3c(NC(=O)C4CC4)nccc32)c(Cl)c1` [Compound No. 170, 3,5-Dichloro-4-({4-[(cyclopropylcarbonyl)amino]-1H-pyrrolo[3,2-c]pyridin-1-yl}carbonyl)-N-(cyclopropylmethyl)benzamide], the concentration for half-maximal inhibition (IC50) in experiment [1] is less than 1000 nM; in experiment [2] it was less than 1000 nM; in experiment [3], less than 500 nM.

As for `O=C(c1c(Cl)cc(Br)cc1Cl)c1c[nH]c2c(NC(=O)C3CC3)nccc12` [Compound No. 22, N-[3-(4-Bromo-2,6-dichlorobenzoyl)-1H-pyrrolo[2,3-c]pyridin-7-yl]cyclopropanecarboxamide], the IC50 in experiment [1] was less than 1000 nM; in experiment [2], less than 500 nM; in experiment [3] it was less than 500 nM.

For the compound `CNC(=O)c1cc(F)c(C(=O)c2c[nH]c3c(NC(=O)C4CC4)nccc23)c(F)c1` [Compound No. 61, 4-({7-[(Cyclopropylcarbonyl)amino]-1H-pyrrolo[2,3-c]pyridin-3-yl}carbonyl)-3,5-difluoro-N-methylbenzamide], the IC50 in experiment [1] was less than 500 nM; in experiment [2] it was less than 500 nM; in experiment [3] it was less than 1000 nM.

For `CCNCc1cc(Cl)c(C(=O)n2ccc3c(NC(=O)C4CC4)nccc32)c(Cl)c1` [Compound No. 164, N-(1-{2,6-Dichloro-4-[(ethylamino)methyl]benzoyl}-1H-pyrrolo[3,2-c]pyridin-4-yl)cyclopropanecarboxamide], the concentration for half-maximal inhibition (IC50) in experiment [1], in experiment [2] and in experiment [3] was less than 500 nM each time.

Turning to `CN(CCO)C(=O)Nc1cc(Cl)c(C(=O)n2ccc3c(NC(=O)C4CC4)nccc32)c(Cl)c1` [Compound No. 112, N-[1-(2,6-Dichloro-4-{[(2-hydroxyethyl)(methyl)carbamoyl]amino}benzoyl)-1H-pyrrolo[3,2-c]pyridin-4-yl]cyclopropanecarboxamide], the half-inhibitory concentration (IC50) in experiment [1] is less than 500 nM; in experiment [2], less than 500 nM; in experiment [3] it was less than 1000 nM.

For the compound `O=C(NCCF)c1cc(F)c(C(=O)c2c[nH]c3c(NC(=O)C4CC4)nccc23)c(F)c1` [Compound No. 59, 4-({7-[(Cyclopropylcarbonyl)amino]-1H-pyrrolo[2,3-c]pyridin-3-yl}carbonyl)-3,5-difluoro-N-(2-fluoroethyl)benzamide], the IC50 in experiment [1], in experiment [2] and in experiment [3] was less than 500 nM in each case.

`COC(=O)CNC(=O)c1cc(Cl)c(C(=O)c2c[nH]c3c(NC(=O)C4CC4)nccc23)c(Cl)c1` [Compound No. 35, Methyl N-[3,5-dichloro-4-({7-[(cyclopropylcarbonyl)amino]-1H-pyrrolo[2,3-c]pyridin-3-yl}carbonyl)benzoyl]glycinate]: the half-inhibitory concentration (IC50) in experiment [1], in experiment [2] and in experiment [3] was less than 500 nM throughout.

Turning to `O=C(NCC1CCCNC1)c1cc(Cl)c(C(=O)n2ccc3c(NC(=O)C4CC4)nccc32)c(Cl)c1` (stereo not drawn) [Compound No. 171, 3,5-Dichloro-4-({4-[(cyclopropylcarbonyl)amino]-1H-pyrrolo[3,2-c]pyridin-1-yl}carbonyl)-N-(piperidin-3-ylmethyl)benzamide], the concentration for half-maximal inhibition (IC50) in experiment [1] is less than 100 nM; in experiment [2], less than 100 nM; in experiment [3], less than 500 nM.

As to `N#Cc1cc(Cl)c(C(=O)c2c[nH]c3c(NC(=O)C4CC4)nccc23)c(Cl)c1` [Compound No. 39, N-[3-(2,6-Dichloro-4-cyanobenzoyl)-1H-pyrrolo[2,3-c]pyridin-7-yl]cyclopropanecarboxamide], the concentration for half-maximal inhibition (IC50) was less than 50 nM in experiment [1], less than 50 nM in experiment [2] and less than 500 nM in experiment [3].

Regarding `CCNC(=O)c1cc(Cl)c(C(=O)n2ccc3cnc(NC(=O)C4CC4)cc32)c(Cl)c1` [Compound No. 130, 3,5-dichloro-4-({6-[(cyclopropylcarbonyl)amino]-1H-pyrrolo[3,2-c]pyridin-1-yl}carbonyl)-N-ethylbenzamide], the IC50 in experiment [1] was less than 50 nM; in experiment [2] it was less than 100 nM; in experiment [3] it was less than 500 nM.

The term IC50 denotes the concentration at which inhibition is half-maximal.
